Reference: patent US20210369691A1, “METHODS AND COMPOSITIONS FOR IMPROVING BONE MARROW HEMATOPOIETIC FUNCTIONS” (Sun Yat-Sen University, priority 2018, published 2021)

Legend:
Type in all cases: in vivo, mice
hematopoietic stem cells [1] = test: Hematopoietic stem cell number in bone marrow after 5FU injury with ABC294640 treatment; details: vs solvent control
Description: In order to calculate the number of hematopoietic stem cells in mice, statistical quantification was performed for the number of hematopoietic stem cells using the molecular marker system Lin^−Sca1^+c-Kit^+CD150^+CD48^−, in combination with flow cytometry. Briefly, 2 million bone marrow cells were resuspended in 100 μl PBS, and 2 μl of a combination of anti-Lin, anti-Sca-1, anti-c-Kit, anti-CD150 and anti-CD48 was added. Samples were kept on ice for 1 h and washed with 1 ml of PBS, then resuspended with […] of PBS for flow cytometry analysis to determine the number of hematopoietic stem cells in the mouse bone marrow. T-test analysis was carried out using Graphpad6.0, and the difference was considered statistically significant when P<0.05. Twenty 8-week-old C57 mice (purchased from Laboratory Animal Center, Sun Yat-sen University) were injected intraperitoneally with 5FU at a dose of 150 mg/kg, respectively. After 5FU treatment, control mice (10 mice) were injected with a solvent control solution (1:1 physiological saline: PEG400) and the SphK2 inhibitor treatment mice (10 mice) were injected with the SphK2 inhibitor ABC294640. Briefly, 5FU was injected on day 1, and the inhibitor and solvent control solution were injected on day 2 and every other day, for five times in total. […] The SphK2 inhibitor ABC294640 was purchased from Selleck and dissolved in dimethyl sulfoxide (DMSO), it was then diluted with a mixture solution of polyethylene glycol 400 (PEG400) and physiological saline (1:1), and was injected to the mice with a dose of 10 mg/kg. T-test analysis was carried out using Graphpad6.0, and the differences were considered statistically significant when P<0.05.

white blood cells [2] = test: White blood cell recovery in peripheral blood after 5FU; details: after 5FU 150 mg/kg once; ABC294640 10 mg/kg every other day; days 0, 1, 5, 11; vs solvent control; FIG. 5
Description: Preparation of the SphK2 inhibitor was as described in Example 4. Twelve 8-week-old C57 mice purchased from Laboratory Animal Center, Sun Yat-sen University were selected and divided evenly into two groups. The mice were intraperitoneally injected with 5FU at a dose of 150 mg/kg once. The injection of the inhibitor ABC294640 and the solvent control solution was as described in Example 4, which started from the day after 5-fluorouracil injection, followed by injections once every other day, at a dose of 10 mg/kg, until the end of the experiment. Periphery blood (PB) of each mouse was separately collected to determine white blood cell (WBC) counts 0, 1, 5 and 11 days after 5-FU administration. T-test analysis was carried out using Graphpad6.0, and differences were considered statistically significant when P<0.05.

white blood cells [3] = test: White blood cell recovery after bone marrow transplantation; details: 7-35 days after bone marrow transplantation; ABC294640 10 mg/kg every other day; vs solvent control
Description: (§1) Twenty-five 8-week-old C57 mice (purchased from Laboratory Animal Center, Sun Yat-sen University) were selected and kept in a specific pathogen free (SPF) environment. 5 mice were randomly selected and sacrificed by cervical dislocation. Femurs and tibias were taken and the bone marrow was obtained from the bone marrow cavity with an 1 ml syringe. Bone marrow was dispersed to form a single cell suspension and lysed with red blood cell lysis buffer for 2 min to remove red blood cells, followed by filtering through a 70 μm filter screen to obtain a single cell suspension. The other 20 mice were treated with X-ray radiation at a dose of 900 cGy, and were injected with 400,000 of the prepared bone marrow single cell suspension via tail vein, respectively. Then, the recipient mice were divided evenly into 2 groups, and mice of the ABC294640 treatment group were subjected to intraperitoneal injection of ABC294640 every other day. Mice in the control group was injected with a solvent solution control (1:1 of physiological saline: PEG400) solution. ABC294640 was purchased from Selleck and dissolved in dimethyl sulfoxide (DMSO), and diluted with a mixture solution of polyethylene glycol 400 (PEG400) and physiological saline (1:1) to be administered at a dose of 10 mg/kg.
(§2) Preparation of SphK2 inhibitors was as described in Example 10. […]

platelets = test: Platelet recovery after bone marrow transplantation; details: 7-35 days after bone marrow transplantation; ABC294640 10 mg/kg every other day; vs solvent control
Description: as §1, §2

hematopoietic stem cells [4] = test: Serial transplantation repopulation assay of bone marrow cells after 5FU and ABC294640 treatment
From the text: FIG. 28. illustrates the quantification of functional HSCs by transplantation assay. 2×10^5 bone marrow cells from C57BL/6J mice after 5FU and ABC294640 or vehicle control treatment were transplanted into […] mice along with 2×10^5 recipient bone marrow cells. 1×10^6 bone marrow cells from primary or secondary recipient mice were transplanted into […] mice in secondary or tertiary recipients respectively. PB analysis for total engrafted donor cells at the indicated number of weeks after transplantation. FIG. 29. illustrates the percentage of donor-derived B, T and myeloid lineage cells at 16 weeks after transplantation. Repopulation analyses was also performed to investigate whether ABC294640 treatment functionally promotes HSC regeneration after chemotherapeutic stress.

[5] = day 14 post 5FU treatment, FIG. 26
[6] = 16 weeks after transplantation, FIG. 29
[7] = at 16 weeks, donor bone marrow after 5FU and ABC294640 vs solvent control, FIG. 28

SMILES: O=C(NCc1ccncc1)C12CC3CC(C1)CC(c1ccc(Cl)cc1)(C3)C2 [ABC294640, 3-(4-chloro-phenyl)-adamantane-1-carboxylic acid (pyridin-4-ylmethyl)-amide]
- number of hematopoietic stem cells in bone marrow (hematopoietic stem cells [1]; after 5FU 150 mg/kg i.p., ABC294640 10 mg/kg every other day x5, day 12, **P<0.01, FIG. 4): increased significantly
- increase of CD150 HSC pool size (hematopoietic stem cells [1]; [5]): about 2.2 fold
- increase of LT-HSC pool size (hematopoietic stem cells [1]; [5]): about 2.2 fold
- increase of ST-HSC pool size (hematopoietic stem cells [1]; [5]): about 1.6 fold
- number of white blood cells from the peripheral blood (white blood cells [2]): significantly increased
- number of white blood cells in the peripheral blood (white blood cells [3]): significantly (*P<0.05, **P<0.01 and ***P<0.001) increased
- number of platelets in the peripheral blood (platelets): significantly (*P<0.05, and ***P<0.001) increased
- lymphopoiesis in recipients (hematopoietic stem cells [4]; [6]): markedly promoted lymphopoiesis
- myeloid skewing in recipients (hematopoietic stem cells [4]; [6]): suppressed myeloid skewing
- increase of reconstitution, primary transplantation (hematopoietic stem cells [4]; [7]): about 1.7 fold
- increase of reconstitution, secondary transplantation (hematopoietic stem cells [4]; [7]): about 1.5 fold
- increase of reconstitution, tertiary transplantation (hematopoietic stem cells [4]; [7]): about 1.9 fold
